Key:
OCI-LY10 = assay: In vitro tumor cell proliferation inhibition, OCI-LY10 (CellTiter-Glo); type: cell-based; settings: Homo sapiens; OCI-LY10 cells, 72 h
Experimental: (§1) (1) Method • The tumor cell line (TMD-8/OCY-LY10) was suspended in RPMI1640+FBS10% and cultured in an incubator (37° C., 5% CO2). Cells were passaged periodically, and cells at logarithmic growth phase were collected for plating. • Cell staining was performed with trypan blue and viable cells were counted. • Cell concentration was adjusted to 7000 cells/well with medium. • 90 μL of cell suspension was added to a 96-well plate and cell-free culture medium was added to the blank control wells. • Cells in the 96-well plate were incubated overnight in an incubator (37° C., 5% CO2, 100% relative humidity). • Preparation of 400× compound storage plates: test compounds and reference drug were each dissolved in DMSO and 3× diluted from the highest concentration (400 μM) to the lowest concentration (0.61 μM). • Preparation of 10× compound working solutions: 78 μL of cell culture medium was added to a V-bottom 96-well plate, and 2 μL of the compound was pipetted from the 400× compound storage plate into the 96-well plate. Vehicle control wells and blank control wells were added with 2 μL of DMSO. […] Inhibition rates of compounds at different concentrations were calculated in Excel, followed by plotting the inhibition curves and calculating IC50 values with GraphPad Prism.

TMD-8 xenograft tumor = TMD-8 xenograft tumor model; type: in vivo; settings: intragastric 25 mg/kg once/day
Experimental: (§2) CB17/SCID female mice with serious immune deficiency were purchased from Beijing Vital River Laboratory Animal Technology Co., Ltd. and bred in SPF animal houses. Human TMD-8 cells (Shanghai Junrui-UFBN1682) were cultured in an RPMI 1640 culture medium containing 10% fetal bovine serum, 100 U/mL penicillin and 100 μg/mL streptomycin through monolayer culture in vitro in an incubator (37° C., 5% C02). Routine treatment was performed twice a week for passaging. At a cell saturation of 80%-90% and a required number, the cells were harvested and counted. 0.2 mL (1×10^7) of TMD-8 cells (together with matrigel at a volume ratio of 1:1) were subcutaneously inoculated into the right back of each mouse, and the tumor size could be measured about one week after inoculation. Tumor size was measured using a vernier caliper and tumor volume was calculated using the following formula: tumor volume=(length×width^2)/2.

OCI-LY10 xenograft tumor = OCI-LY10 xenograft tumor model; type: in vivo; settings: intragastric 25 mg/kg once/day, day 28
Experimental: as §2, with “OCI-LY10” for “TMD-8”, “Junrui-UFBN0102)” for “Junrui-UFBN1682)”

TMD-8 = assay: In vitro tumor cell proliferation inhibition, TMD-8 (CellTiter-Glo); type: cell-based; settings: Homo sapiens, TMD8; TMD-8 cells, 72 h
Experimental: as §1

`C=CC(=O)N1CCC[C@@H](n2nc(-c3ccc(Oc4ccccc4)cc3)c3c(N)ncnc32)C1` [Ibrutinib, ibrutinib, reference compound] showed an IC50 (OCI-LY10) of 1.7 nM, a TGI (TMD-8 xenograft tumor) of 90% and a TGI (OCI-LY10 xenograft tumor) of 94%. The IC50 (TMD-8) was 0.4 nM.

Reference: patent US11420975B2, “Substituted imidazo[1,5-a]pyrazines as Bruton's tyrosine kinase inhibitors” (TRANSTHERA SCIENCES (NANJING), INC., priority 2018, dated 2022)
